We go through 32 compounds from US9586951B2 (FUJIFILM Corporation, priority 2013, dated 2017).

Where a name gives a salt, the structure may show the parent alone. Some results are limits rather than exact numbers.

The target of this assay is T1, ATM (Homo sapiens, UniProt Q13315).
T1 construct: detecting phosphorylation of Chk2 in a human non-small cell lung cancer cell line NCI-H460 (ATCC company); host or cells: NCI-H460 human non-small cell lung cancer cells
T1 sequence (Q13315 whole entry): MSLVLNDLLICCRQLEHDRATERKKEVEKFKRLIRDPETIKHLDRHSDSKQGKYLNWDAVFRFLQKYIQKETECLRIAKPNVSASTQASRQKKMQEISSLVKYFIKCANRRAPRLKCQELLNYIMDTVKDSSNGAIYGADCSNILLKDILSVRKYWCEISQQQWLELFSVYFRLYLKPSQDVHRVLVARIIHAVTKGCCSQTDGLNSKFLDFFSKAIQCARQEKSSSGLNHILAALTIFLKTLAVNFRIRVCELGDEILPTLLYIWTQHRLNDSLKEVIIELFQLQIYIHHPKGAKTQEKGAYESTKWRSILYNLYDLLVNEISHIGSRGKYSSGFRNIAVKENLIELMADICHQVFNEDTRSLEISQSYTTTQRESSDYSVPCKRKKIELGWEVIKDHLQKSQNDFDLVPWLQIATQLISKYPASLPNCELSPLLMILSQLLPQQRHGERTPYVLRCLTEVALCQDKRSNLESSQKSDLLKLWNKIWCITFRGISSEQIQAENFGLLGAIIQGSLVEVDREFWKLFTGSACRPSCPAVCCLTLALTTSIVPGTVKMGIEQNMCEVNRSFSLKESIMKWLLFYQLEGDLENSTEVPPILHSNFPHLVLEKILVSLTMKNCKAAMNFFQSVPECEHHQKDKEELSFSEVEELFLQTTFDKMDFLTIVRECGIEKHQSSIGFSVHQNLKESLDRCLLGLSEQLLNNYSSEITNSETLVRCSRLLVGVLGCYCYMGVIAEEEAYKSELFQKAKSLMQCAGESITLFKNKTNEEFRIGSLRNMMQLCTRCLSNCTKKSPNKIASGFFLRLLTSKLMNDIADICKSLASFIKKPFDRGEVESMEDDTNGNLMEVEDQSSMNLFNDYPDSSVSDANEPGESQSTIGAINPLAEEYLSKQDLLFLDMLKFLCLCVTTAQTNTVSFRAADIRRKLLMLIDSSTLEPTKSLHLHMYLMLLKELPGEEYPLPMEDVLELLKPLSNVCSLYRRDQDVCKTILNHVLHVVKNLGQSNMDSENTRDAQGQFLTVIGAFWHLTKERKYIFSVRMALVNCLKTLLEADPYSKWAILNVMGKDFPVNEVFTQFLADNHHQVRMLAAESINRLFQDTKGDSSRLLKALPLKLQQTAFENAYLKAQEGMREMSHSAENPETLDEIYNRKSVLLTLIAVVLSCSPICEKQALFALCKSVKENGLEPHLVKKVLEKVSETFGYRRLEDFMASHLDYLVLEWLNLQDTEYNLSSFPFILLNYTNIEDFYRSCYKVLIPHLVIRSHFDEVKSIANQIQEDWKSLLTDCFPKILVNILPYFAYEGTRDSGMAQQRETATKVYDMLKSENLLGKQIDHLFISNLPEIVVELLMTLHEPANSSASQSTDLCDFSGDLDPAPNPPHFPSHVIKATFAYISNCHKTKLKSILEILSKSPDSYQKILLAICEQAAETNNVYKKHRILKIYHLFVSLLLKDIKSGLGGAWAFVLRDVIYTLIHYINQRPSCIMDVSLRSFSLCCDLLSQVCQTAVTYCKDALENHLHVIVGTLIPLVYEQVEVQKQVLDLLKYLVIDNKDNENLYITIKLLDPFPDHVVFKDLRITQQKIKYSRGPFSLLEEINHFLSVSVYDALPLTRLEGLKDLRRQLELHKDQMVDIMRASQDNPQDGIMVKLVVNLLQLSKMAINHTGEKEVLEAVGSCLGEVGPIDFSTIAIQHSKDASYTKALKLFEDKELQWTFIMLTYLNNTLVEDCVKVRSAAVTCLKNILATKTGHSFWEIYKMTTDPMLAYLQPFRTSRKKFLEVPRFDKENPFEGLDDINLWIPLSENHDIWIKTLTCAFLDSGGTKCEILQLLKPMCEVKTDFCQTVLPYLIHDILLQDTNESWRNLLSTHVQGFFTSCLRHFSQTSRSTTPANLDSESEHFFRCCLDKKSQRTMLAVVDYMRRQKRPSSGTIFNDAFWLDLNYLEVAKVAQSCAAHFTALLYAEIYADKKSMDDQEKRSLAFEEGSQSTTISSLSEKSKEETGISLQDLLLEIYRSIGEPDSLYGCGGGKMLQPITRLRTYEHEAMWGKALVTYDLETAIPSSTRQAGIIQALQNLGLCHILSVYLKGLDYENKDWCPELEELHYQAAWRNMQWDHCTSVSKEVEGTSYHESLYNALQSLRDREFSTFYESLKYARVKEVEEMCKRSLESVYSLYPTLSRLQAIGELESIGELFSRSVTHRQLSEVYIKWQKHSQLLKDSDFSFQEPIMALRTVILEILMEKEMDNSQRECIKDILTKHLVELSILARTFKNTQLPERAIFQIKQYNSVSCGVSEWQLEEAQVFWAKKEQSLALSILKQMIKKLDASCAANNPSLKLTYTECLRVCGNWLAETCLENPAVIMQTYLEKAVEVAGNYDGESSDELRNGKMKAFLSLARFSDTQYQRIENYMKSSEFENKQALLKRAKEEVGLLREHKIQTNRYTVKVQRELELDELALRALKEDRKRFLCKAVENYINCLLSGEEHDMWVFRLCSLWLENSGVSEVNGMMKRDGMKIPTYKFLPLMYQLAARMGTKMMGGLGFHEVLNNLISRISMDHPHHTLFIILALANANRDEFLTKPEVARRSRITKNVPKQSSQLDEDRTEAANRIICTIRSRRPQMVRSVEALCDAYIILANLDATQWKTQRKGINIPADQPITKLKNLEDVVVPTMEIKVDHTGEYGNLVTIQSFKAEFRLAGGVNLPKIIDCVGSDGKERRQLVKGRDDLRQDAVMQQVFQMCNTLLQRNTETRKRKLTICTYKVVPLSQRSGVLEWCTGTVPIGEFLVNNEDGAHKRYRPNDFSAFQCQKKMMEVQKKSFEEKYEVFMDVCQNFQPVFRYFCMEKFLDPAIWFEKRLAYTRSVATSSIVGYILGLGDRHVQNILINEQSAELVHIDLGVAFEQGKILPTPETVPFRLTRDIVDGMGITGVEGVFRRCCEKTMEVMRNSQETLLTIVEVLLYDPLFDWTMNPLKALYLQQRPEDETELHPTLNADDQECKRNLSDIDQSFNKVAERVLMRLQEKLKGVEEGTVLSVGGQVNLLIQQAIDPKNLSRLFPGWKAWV
Nature of the assay: ATM inhibition test (phosphorylation of Chk2 generated by ionizing radiation, AlphaScreen SureFire). The conditions noted are these: phosphorylated Chk2 in NCI-H460 cells, ionizing radiation 8Gy, 1 hour after test compound treatment; read-out: ATM inhibitory activity. Type of assay: cell-based. In a few lines: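 Human NCI-H460 lung cancer cells were treated with compound for 1 h, then irradiated at 8Gy and incubated 1 h at 37° C. Phospho-Chk2 was quantified by AlphaScreen SureFire; inhibition % was normalised between irradiated untreated and non-irradiated untreated wells.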
(Alpha assays give light when donor and acceptor beads are brought close together.)
For `O=c1cc(N2CCOCC2)cc(-c2cccc3c2Sc2ccc(NCc4cncc(-n5cccc5)c4)cc2S3)[nH]1` [Example 1-12-19, 6-(7-(((5-(1H-Pyrrol-1-yl)pyridin-3-yl)methyl)amino)thianthren-1-yl)-4-morpholino pyridin-2(1H)-one], the IC50 was under 0.1 µM.
Next, `Nc1ccc2c(c1)Cc1cccc(-c3cc(N4CCOCC4)cc(=O)[nH]3)c1S2` [Example 3-1, 6-(7-amino-9H-thioxanthen-4-yl)-4-morpholinopyridin-2(1H)-one]: 0.5 to 2 µM; `COC[C@H](CN1CCOCC1)Nc1ccc2c(c1)Sc1cccc(-c3cc(=O)cc(N4CCOCC4)o3)c1S2` [Example 11-3, (S)-2-(7-((1-methoxy-3-morpholinopropan-2-yl)amino)thianthren-1-yl)-6-morpholino-4H-pyran-4-one]: under 0.1 µM.
In the case of `O=c1cc(N2CCOCC2)cc(-c2cccc3c2Sc2ccc(NC4CCCN(Cc5ccccn5)C4)cc2S3)[nH]1` (centres unmarked) [Example 1-24-3, 4-Morpholino-6-(7-((1-(pyridin-2-ylmethyl)piperidin-3-yl)amino)thianthren-1-yl)pyridin-2 (1H)-one], the IC50 was 0.1 to 0.5 µM.
Next, `COCCN(C)CCC(Nc1ccc2c(c1)Sc1cccc(-c3cc(N4CCOCC4)cc(=O)[nH]3)c1S2)c1cnc(C)cn1` (single isomer, unassigned) [Example 10-3-4, 6-(7-((3-((2-Methoxyethyl) (methyl)amino)-1-(5-methylpyrazin-2-yl)propyl)amino)thianthren-1-yl)-4-morpholino pyridin-2(1H)-one]: under 0.1 µM; `Cc1ccc(C(Nc2ccc3c(c2)Sc2cccc(-c4cc(N5CCOCC5)cc(=O)[nH]4)c2S3)[C@H]2CCCN2C)nc1` (single isomer, unassigned) [Example 1-56-4]: 0.1 to 0.5 µM; `O=c1cc(N2CCOCC2)cc(-c2cccc3c2Oc2ccc(NCc4cncc(F)c4)cc2C3)[nH]1` [Example 2-2-10, 6-(7-(((5-Fluoropyridin-3-yl)methyl)amino)-9H-xanthen-4-yl)-4-morpholino pyridin-2 (1H)-one]: 0.1 to 0.5 µM.
The value for `CC(CN1CCN(C(C)C)CC1)Nc1ccc2c(c1)Sc1cccc(-c3cc(N4CCOCC4)cc(=O)[nH]3)c1S2` (centres unmarked) [Example 1-13-14, 6-(7-((1-(4-Isopropylpiperazin-1-yl)propan-2-yl)amino)thianthren-1-yl)-4-morpholino pyridin-2(1H)-one] was 0.1 to 0.5 µM.
Next, `Cc1nccc(C(C)Nc2ccc3c(c2)Sc2cccc(-c4cc(N5CCOCC5)cc(=O)[nH]4)c2S3)n1` (centres unmarked) [Example 1-12-80, 6-(7-((1-(2-Methylpyrimidin-4-yl)ethyl)amino)thianthren-1-yl)-4-morpholino pyridin-2(1H)-one]: 0.1 to 0.5 µM.
In the case of `Cc1cnc(C(CCN(C)C)Nc2ccc3c(c2)Sc2cccc(-c4cc(=O)cc(N5CCOCC5)o4)c2S3)cn1` (single isomer, unassigned) [Example 10-8, 2-(7-((3-(dimethylamino)-1-(5-methylpyrazin-2-yl)propyl)amino)thianthren-1-yl)-6-morpholino-4H-pyran-4-one], the IC50 was under 0.1 µM.
The value for `COc1cncc(C(C)Nc2ccc3c(c2)Cc2cccc(-c4cc(N5CCOCC5)cc(=O)[nH]4)c2O3)c1` (racemic) [Example 2-11-2, 6-(7-((1-(5-Methoxypyridin-3-yl)ethyl)amino)-9H-xanthen-4-yl)-4-morpholinopyridin-2(1H)-one] was 0.1 to 0.5 µM; that for `CCC(Nc1ccc2c(c1)Sc1cccc(-c3cc(N4CCOCC4)cc(=O)[nH]3)c1S2)c1cncc(OC)c1` (centres unmarked) [Example 1-12-17, 6-(7-((1-(5-Methoxypyridin-3-yl)propyl)amino)thianthren-1-yl)-4-morpholino pyridin-2(1H)-one] was 0.1 to 0.5 µM.
Take `O=c1cc(N2CCOCC2)cc(-c2cccc3c2Oc2ccc(NCc4ccc(-n5cccn5)nc4)cc2C3)[nH]1` [Example 2-2-31, 6-(7-(((6-(1H-Pyrazol-1-yl)pyridin-3-yl)methyl)amino)-9H-xanthen-4-yl)-4-morpholino pyridin-2(1H)-one]: the IC50 was 0.1 to 0.5 µM.
The value for `CC(CN1C2CCC1COC2)Nc1ccc2c(c1)Sc1cccc(-c3cc(N4CCOCC4)cc(=O)[nH]3)c1S2` (centres unmarked) [Example 1-13-5, 6-(7-((1-(3-Oxa-8-azabicyclo [3.2.1]octan-8-yl)propan-2-yl)amino)thianthren-1-yl)-4-morpholino pyridin-2(1H)-one] was 0.1 to 0.5 µM; that for `COc1cncc(C(C)Nc2ccc3c(c2)Cc2cccc(-c4nc(N5CCOCC5)cc(=O)[nH]4)c2O3)c1` (centres unmarked) [Example 2-52-4, 2-(7-((1-(5-Methoxypyridin-3-yl)ethyl)amino)-9H-xanthen-4-yl)-6-morpholinopyrimidine-4(3H)-one] was 0.1 to 0.5 µM; that for `COc1ccc(C2c3cc(N)ccc3Oc3c2ccnc3-c2cc(N3CCOCC3)cc(=O)[nH]2)cc1` (centres unmarked) [Example 2-66, Hydrochloride of 6-(7-amino-5-(4-methoxyphenyl)-5H-chromeno[2,3-c]pyridin-1-yl)-4-morpholinopyridin-2(1H)-one] was 0.1 to 0.5 µM.
The value for `CC(CN1CCN(c2ccncc2)CC1)Nc1ccc2c(c1)Sc1cccc(-c3cc(N4CCOCC4)cc(=O)[nH]3)c1S2` (centres unmarked) [Example 1-13-16, 4-Morpholino-6-(7-((1-(4-(pyridin-4-yl)piperazin-1-yl)propan-2-yl)amino)thianthren-1-yl)pyridin-2 (1H)-one] was 0.1 to 0.5 µM; that for `Cc1ccc(C(CCN(C)C)Nc2ccc3c(c2)Sc2cccc(-c4cc(N5CCOCC5)cc(=O)[nH]4)c2S3)nc1` (single isomer, unassigned) [Example 1-51-5, 6-(7-((3-(Dimethylamino)-1-(5-methylpyridin-2-yl)propyl)amino)thianthren-1-yl)-4-morpholino pyridin-2 (1H)-one] was under 0.1 µM.
Next, `Cc1ccc(CNc2ccc3c(c2)Cc2ccnc(-c4cc(N5CCOCC5)cc(=O)[nH]4)c2O3)nc1` [Example 2-42-2, 6-(7-(((5-Methylpyridin-2-yl)methyl)amino)-5H-chromeno[2,3-c]pyridin-1-yl)-4-morpholinopyridin-2(1H)-one]: 0.1 to 0.5 µM.
Turning to `O=c1cc(N2CCOCC2)cc(-c2cccc3c2Sc2ccc(NCc4cccnn4)cc2C3)[nH]1` [Example 3-8-12], the IC50 lay within 0.5 to 2 µM.
Next, `COCC(CN1CCOCC1)Nc1ccc2c(c1)Sc1cccc(-c3cc(N4CCOCC4)cc(=O)[nH]3)c1S2` (single isomer, unassigned) [Example 1-17-1-3, 6-(7-((1-methoxy-3-morpholinopropan-2-yl)amino)thianthren-1-yl)-4-morpholinopyridin-2(1H)-one]: 0.1 to 0.5 µM; `CC(Nc1ccc2c(c1)Sc1cccc(-c3cc(N4CCOCC4)cc(=O)[nH]3)c1S2)c1ccncn1` (centres unmarked) [Example 1-12-74, 4-Morpholino-6-(7-((1-(pyrimidin-4-yl)ethyl)amino)thianthren-1-yl)pyridin-2 (1H)-one]: 0.1 to 0.5 µM; `CC(C)(O)CN1CCC(Nc2ccc3c(c2)Sc2cccc(-c4cc(N5CCOCC5)cc(=O)[nH]4)c2S3)CC1` [Example 1-29-1, 6-(7-((1-(2-hydroxy-2-methylpropyl)piperidin-4-yl)amino)thianthren-1-yl)-4-morpholinopyridin-2(1H)-one]: 0.1 to 0.5 µM.
Next, `COc1nccc(C(C)Nc2ccc3c(c2)Sc2cccc(-c4cc(N5CCOCC5)cc(=O)[nH]4)c2S3)n1` (centres unmarked) [Example 1-12-88, 6-(7-((1-(2-Methoxypyrimidin-4-yl)ethyl)amino)thianthren-1-yl)-4-morpholino pyridin-2(1H)-one]: 0.1 to 0.5 µM; `Cc1ccnc(C(CF)Nc2ccc3c(c2)Cc2cccc(-c4cc(N5CCOCC5)cc(=O)[nH]4)c2O3)n1` (centres unmarked) [Example 2-14-81, 6-(7-((2-Fluoro-1-(4-methylpyrimidin-2-yl)ethyl)amino)-9H-xanthen-4-yl)-4-morpholino pyridin-2(1H)-one]: 0.1 to 0.5 µM; `O=c1cc(N2CCOCC2)cc(-c2cccc3c2Oc2ccc(NCc4cnc5c(c4)OCO5)cc2C3)[nH]1` [Example 2-2-30, 6-(7-(([1,3]Dioxolo[4,5-b]pyridin-6-ylmethyl)amino)-9H-xanthen-4-yl)-4-morpholino pyridin-2(1H)-one]: 0.1 to 0.5 µM.
Next, `O=c1cc(N2CCOCC2)cc(-c2cccc3c2Oc2ccc(NCc4cncc(C5=CCCC5)c4)cc2C3)[nH]1` [Example 2-2-61, 6-(7-(((5-(Cyclopent-1-en-1-yl)pyridin-3-yl)methyl)amino)-9H-xanthen-4-yl)-4-morpholino pyridin-2(1H)-one]: 0.1 to 0.5 µM; `Cc1ccc(C(Nc2ccc3c(c2)Sc2cccc(-c4cc(N5CCOCC5)cc(=O)[nH]4)c2S3)C2CN(C)C2)nc1` (centres unmarked) [Example 1-22-8, 6-(7-(((1-Methylazetidin-3-yl)(5-methylpyridin-2-yl)methyl)amino)thianthren-1-yl)-4-morpholino pyridin-2 (1H)-one]: 0.1 to 0.5 µM.
“4-Morpholino-6-(7-((1-(5- (morpholino methyl) pyrimidin-2-yl)ethyl) amino)thianthren-1- yl)pyridin-2(1H)-one [Example 1-12-95]”: the IC50 was in the range of 0.1 to 0.5 µM.
`O=c1cc(N2CCOCC2)cc(-c2cccc3c2Oc2ccc(NCCN4CCOCC4)cc2S3)[nH]1` [Example 4-11, 4-Morpholino-6-(8-((2-morpholinoethyl)amino)phenoxathiin-4-yl)pyridin-2(1H)-one]: the IC50 lay within 0.1 to 0.5 µM.
The value for `O=c1cc(N2CCOCC2)cc(-c2cccc3c2Sc2ccc(NC4CCN(C5CCCC5)C4)cc2S3)[nH]1` (centres unmarked) [Example 1-24-12, 6-(7-((1-Cyclopentylpyrrolidin-3-yl)amino)thianthren-1-yl)-4-morpholino pyridin-2(1H)-one] was 0.1 to 0.5 µM; that for `CC(Nc1ccc2c(c1)Cc1cccc(-c3cc(N4CCOCC4)cc(=O)[nH]3)c1O2)C1CC1` (centres unmarked) [Example 2-14-70, 6-(7-((1-Cyclopropylethyl)amino)-9H-xanthen-4-yl)-4-morpholino pyridin-2(1H)-one] was 0.5 to 2 µM.
